System: MDR isolate of H. contortus, exsheathed L3 larvae
Experiment: Larval motility assay (LMA), Worminator
Type: cell-based, Haemonchus contortus
Excerpt: The H. contortus isolates used were TxPh-2011-S (Texas A&M University, USA) and UGA MDR 2020 (University of Georgia Athens, USA). TxPh-2011-S (Texas A&M University, USA) was originally isolated from Pronghorn antelope in West Texas in 2011 and is fully drug susceptible, phenotypically determined by the DrenchRite larval development assay (LDA; Microbial Screening Technologies, Kemps Creek, Australia). To establish this as a laboratory isolate, it was initially passaged in goats at Texas A&M University and then at The University of Georgia using both goats and sheep, and it is currently maintained in lambs at Louisiana State University. A nemabiome assay ([69]) was conducted at the University of Calgary to confirm that the isolate is 100% H. contortus. The UGA MDR 2020 (University of Georgia Athens, USA) isolate is resistant to ivermectin, benzimidazoles, levamisole, and moxidectin, as determined by the DrenchRite LDA. To establish this as a laboratory isolate, feces collected from a sheep farm in Georgia with known history of multiple anthelmintic resistance were cultured. Two donor goats were infected with the larvae recovered, which were morphologically ([70]) identified as 89% H. contortus. A fecal egg count reduction test (FECRT) was then performed in the infected goats. First, a combination treatment with albendazole at 15 mg/kg and ivermectin at 0.4 mg/kg was performed, followed by a treatment with levamisole at 12 mg/kg. Later, and to confirm resistance to moxidectin, another treatment was administered using a dose of 0.4 mg/kg of moxidectin. Posttreatment feces were recovered, coprocultures were established, and L3 larvae were identified as 100% H. contortus. Resistance to all drugs was subsequently confirmed using a DrenchRite assay.
For LMAs, the first phase testing using compounds NSC133100 and NSC177383 was done using the Worminator system in parallel with the LDA. Initial stock solutions of 12.5 mM were prepared for each compound using 100% DMSO as a solvent. Initial stock solutions (25 μL) were then diluted in 475 μL of culture media to yield working stock solutions of 625.00, 156.30, 39.10, 9.80, 2.40, 0.60, 0.20, 0.04, and 0.00 μM in 5% DMSO for each drug. In plate, 200 μL of working stock solutions were then diluted in 800 μL of culture media, yielding concentrations of 125.00, 31.25, 7.81, 1.95, 0.49, 0.12, and 0.00 μM in 1% DMSO. For the second phase of testing, compounds showing anthelmintic activity with the LDA were tested in a second round at higher concentrations than in the first phase of testing. Initial stocks of 50 mM were prepared for compounds NSC133100, NSC177383, NSC145612, and NSC56410 using 100% DMSO as a solvent. Initial stock solutions (25-μL portions) were then diluted in 475 μL of culture media consisting of 65% Lauria-Bertani (LB) (Thermo Fisher Scientific, Branchburg, NJ), 25% NCTC (Sigma-Aldrich), 10% fetal bovine serum (Atlanta Biologicals, Flowery Branch, GA), Pen/Strep (Sigma-Aldrich) at a final concentration of […], and amphotericin B (Sigma-Aldrich) at a final concentration of […]. The working stock solutions yielded concentrations of 2,500.00, 625.00, 156.30, 39.10, 9.80, 2.40, and 0.00 μM in 5% DMSO for each compound. In each well in the plate, 200 μL of working stock solutions were then diluted in 800 μL of culture media, yielding final concentrations of 500.00, 125.00, 31.30, 7.81, 1.95, 0.49, and 0.00 μM in 1% DMSO.
For the motility assays, 24-well plates with inserts were used (Costar, catalog no. 3379; Corning, Inc., Corning, NY). Portions (640 μL) of culture media were added to each well, and approximately 50 exsheathed larvae contained in 160 μL of culture media in each insert. Once pretreatment readings were taken, 160 μL of the drug solution was added to the well, and another 40 μL was added to the insert, reaching the final concentrations described in the protocol above. All concentrations were tested in triplicate. […]

Structure (SMILES) | Percent inhibition of larval motility (15.625 µM, 1 hour) [%] | Percent inhibition of larval motility (15.625 µM, 4 hours) [%] | Percent inhibition of larval motility (15.625 µM, 24 hours) [%] | Percent inhibition of larval motility (15.625 µM, 48 hours) [%] | Percent inhibition of larval motility (15.625 µM, 72 hours) [%] | Percent inhibition of larval motility (15.625 µM, 96 hours) [%] | Percent inhibition of larval motility (15.625 µM, Initial) [%] | Percent inhibition of larval motility (31.25 µM, 1 hour) [%] | Percent inhibition of larval motility (31.25 µM, 4 hours) [%] | Percent inhibition of larval motility (31.25 µM, 24 hours) [%] | Percent inhibition of larval motility (31.25 µM, 48 hours) [%] | Percent inhibition of larval motility (31.25 µM, 72 hours) [%] | Percent inhibition of larval motility (31.25 µM, 96 hours) [%] | Percent inhibition of larval motility (31.25 µM, Initial) [%] | Percent inhibition of larval motility (62.5 µM, 4 hours) [%] | Percent inhibition of larval motility (62.5 µM, 24 hours) [%] | Percent inhibition of larval motility (62.5 µM, 48 hours) [%] | Percent inhibition of larval motility (125 µM, 1 hour) [%] | Percent inhibition of larval motility (125 µM, 4 hours) [%] | Percent inhibition of larval motility (125 µM, 24 hours) [%] | other results
CO[C@H]1/C=C/O[C@@]2(C)Oc3c(C)c(O)c4c(O)c(cc(O)c4c3C2=O)NC(=O)/C(C)=C\C=C\[C@H](C)[C@H](O)[C@@H](C)[C@@H](O)[C@@H](C)[C@H](OC(C)=O)[C@@H]1C [NSC133100] | 6.1 | 6.9 | -6.8 | -11.1 | -11.7 | -3.4 | -7.4 | 6.3 | 1.6 | 0.6 | 11.9 | 3.1 | 5.5 | -21.7 | -11.1 | -12.6 | -2.3 | 33.8 | 3.0 | -6.2 | Percent inhibition of larval motility (125 µM, 48 hours): 18.4%; Percent inhibition of larval motility (125 µM, 72 hours): 14.0%; Percent inhibition of larval motility (125 µM, 96 hours): 26.6%; Percent inhibition of larval motility (125 µM, Initial): -12.3%; Percent inhibition of larval motility (250 µM, 1 hour): 38.9%; Percent inhibition of larval motility (250 µM, 24 hours): -12.4%; Percent inhibition of larval motility (250 µM, 48 hours): 28.6%; Percent inhibition of larval motility (250 µM, 96 hours): 0.9%; Percent inhibition of larval motility (250 µM, Initial): -11.5%; Percent inhibition of larval motility (500 µM, 1 hour): 33.9%; Percent inhibition of larval motility (500 µM, 4 hours): -2.0%; Percent inhibition of larval motility (500 µM, 24 hours): -0.5%; Percent inhibition of larval motility (500 µM, 48 hours): 22.2%; Percent inhibition of larval motility (500 µM, 72 hours): 12.1%; Percent inhibition of larval motility (500 µM, 96 hours): 18.5%; Percent inhibition of larval motility (500 µM, Initial): 5.8%
CO[C@@H]1/C=C\O[C@]2(C)Oc3c(C)c(O)c4c(O)c(c(CN(C)C)c(O)c4c3C2=O)NC(=O)/C(C)=C\C=C[C@@H](C)[C@@H](O)[C@H](C)[C@@H](O)[C@H](C)[C@H](OC(C)=O)[C@@H]1C [NSC145612] | -10.3 | 7.3 | 7.0 | 8.1 | 23.0 | 17.4 | 20.3 | 20.1 | -11.2 | 27.2 | 21.9 | 43.2 | 3.9 | 21.0 | 32.0 | 10.4 | 14.1 | 31.7 | 34.3 | 15.7 | Percent inhibition of larval motility (125 µM, 48 hours): 8.1%; Percent inhibition of larval motility (125 µM, 72 hours): 3.0%; Percent inhibition of larval motility (125 µM, 96 hours): -6.9%; Percent inhibition of larval motility (125 µM, Initial): 21.6%; Percent inhibition of larval motility (250 µM, 1 hour): 13.0%; Percent inhibition of larval motility (250 µM, 24 hours): -8.6%; Percent inhibition of larval motility (250 µM, 48 hours): 13.8%; Percent inhibition of larval motility (250 µM, 96 hours): 12.8%; Percent inhibition of larval motility (250 µM, Initial): 25.9%; Percent inhibition of larval motility (500 µM, 1 hour): -19.2%; Percent inhibition of larval motility (500 µM, 4 hours): 0.4%; Percent inhibition of larval motility (500 µM, 24 hours): -12.0%; Percent inhibition of larval motility (500 µM, 48 hours): 14.1%; Percent inhibition of larval motility (500 µM, 72 hours): 9.6%; Percent inhibition of larval motility (500 µM, 96 hours): -5.1%; Percent inhibition of larval motility (500 µM, Initial): 9.3%
CO[C@@H]1/C=C/O[C@@]2(C)Oc3c(C)c(O)c4c(c3C2=O)C(=N[C@@H]2CC[C@@H](O)O[C@H]2C)C=C(NC(=O)/C(C)=C\C(=O)[C@@H]2C[C@@H]2[C@H](O)[C@@H](C)[C@@H](O)[C@@H](C)[C@H](OC(C)=O)[C@@H]1C)C4=O [NSC177383] | -22.8 | -24.6 | 15.6 | 3.0 | -5.8 | -22.4 | 19.9 | 2.3 | 5.2 | 13.8 | 41.2 | 25.5 | 17.1 | 23.2 | -28.6 | 23.5 | 26.0 | 26.8 | -34.1 | 20.5 | Percent inhibition of larval motility (125 µM, 48 hours): 31.1%; Percent inhibition of larval motility (125 µM, 72 hours): 4.1%; Percent inhibition of larval motility (125 µM, 96 hours): 5.7%; Percent inhibition of larval motility (125 µM, Initial): 22.5%; Percent inhibition of larval motility (250 µM, 1 hour): 28.8%; Percent inhibition of larval motility (250 µM, 24 hours): 30.2%; Percent inhibition of larval motility (250 µM, 48 hours): 44.8%; Percent inhibition of larval motility (250 µM, 96 hours): 31.2%; Percent inhibition of larval motility (250 µM, Initial): 43.9%; Percent inhibition of larval motility (500 µM, 1 hour): 27.1%; Percent inhibition of larval motility (500 µM, 4 hours): -12.9%; Percent inhibition of larval motility (500 µM, 24 hours): 26.6%; Percent inhibition of larval motility (500 µM, 48 hours): 49.1%; Percent inhibition of larval motility (500 µM, 72 hours): 32.3%; Percent inhibition of larval motility (500 µM, 96 hours): 21.4%; Percent inhibition of larval motility (500 µM, Initial): 36.4%

Reference: publication PMC10269165 (Antimicrobial Agents and Chemotherapy, 2023)
